28 molecules from patent US10065972B2, “Bicyclic or tricyclic heterocyclic compound” (MITSUBISHI TANABE PHARMA CORPORATION, priority 2014, dated 2018) can be followed below.

SMILES strings stand for the structures.

The test deals with human recombinant KAT-II (Homo sapiens (Human), UniProt Q8N5Z0). As to the kind of experiment: KAT-II inhibitory test. Type of test: biochemical. As to conditions: 3.0 μmol/L kynurenine, 37° C., 1 hr, pH 8.0; kynurenic acid quantified by HPLC. The method in brief: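 E. coli-expressed His/MBP-tagged human KAT-II (2.0 ng/μL) incubated with 3.0 μmol/L kynurenine and 10 μmol/L pyridoxal phosphate in Tris-acetate pH 8.0, 1 hr at 37 °C. Reaction stopped with TCA. Kynurenic acid quantified by reversed-phase HPLC with fluorescence detection (ex 354/em 460 nm), duplicate at each concentration.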
Sequence of human recombinant KAT-II (Q8N5Z0 30-425): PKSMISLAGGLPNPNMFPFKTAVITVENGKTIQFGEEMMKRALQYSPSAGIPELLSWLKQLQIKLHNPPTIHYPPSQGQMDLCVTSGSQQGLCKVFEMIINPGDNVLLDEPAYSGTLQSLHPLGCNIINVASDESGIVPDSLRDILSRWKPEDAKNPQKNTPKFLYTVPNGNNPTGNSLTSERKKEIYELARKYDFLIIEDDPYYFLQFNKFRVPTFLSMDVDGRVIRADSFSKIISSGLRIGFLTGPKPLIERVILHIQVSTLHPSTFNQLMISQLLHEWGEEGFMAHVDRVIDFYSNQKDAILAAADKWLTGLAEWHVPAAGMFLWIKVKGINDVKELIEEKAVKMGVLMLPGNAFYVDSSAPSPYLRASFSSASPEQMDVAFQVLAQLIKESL
A word on the IC50: it is the concentration that gives 50% inhibition. Consider `CN1CCC(n2c(C(F)(F)F)nc3sc(N4CCC[C@@H]4C(=O)NCc4ccccc4)nc3c2=O)CC1` [Example 264, (R)-N-benzyl-1-[6-(1-methylpiperidin-4-yl)-7-oxo-5-trifluoromethyl-6,7-dihydro-[1,3]thiazolo[5,4-d]pyrimidin-2-yl]pyrrolidine-2-carboxamide], for which the IC50 was 160 nM.

On to `C[C@@H](NC(=O)[C@H]1CCCN1c1nc2c(=O)n(C)c(C(C)(F)F)nc2s1)c1ccccc1` [Example 267, (R)-1-[5-(1,1-difluoroethyl)-6-methyl-7-oxo-6,7-dihydro[1,3]thiazolo[5,4-d]pyrimidin-2-yl]-N-((R)-1-phenylethyl)pyrrolidine-2-carboxamide], for which the IC50 worked out at 22 nM.

As for `Cn1c(C2(F)CC2)nc2sc(N3CCC[C@@H]3C(=O)NCc3ccccc3)nc2c1=O` [Example 268, (R)-N-benzyl-1-[5-(1-fluorocyclopropyl)-6-methyl-7-oxo-6,7-dihydro[1,3]thiazolo[5,4-d]pyrimidin-2-yl]pyrrolidine-2-carboxamide], the IC50 came out at 8.8 nM.

`Cn1c(C(F)(F)c2ccccn2)nc2sc(N3CCC[C@@H]3C(=O)NCc3ccccc3)nc2c1=O` [Example 273, (R)-N-benzyl-1-{5-[difluoro(pyridin-2-yl)methyl]-6-methyl-7-oxo-6,7-dihydro[1,3]thiazolo[5,4-d]pyrimidin-2-yl}pyrrolidine-2-carboxamide]: the IC50 worked out at 5.6 nM.

`Cn1c(C(F)F)nc2sc(N3CCC[C@@H]3C(=O)NCc3ccccc3)nc2c1=O` [Example 281, (R)-N-benzyl-1-(5-difluoromethyl-6-methyl-7-oxo-6,7-dihydro-[1,3]thiazolo[5,4-d]pyrimidin-2-yl)pyrrolidine-2-carboxamide]: the IC50 is 27 nM.

Regarding `CN(C)CCCn1c(C(F)(F)F)nc2sc(N3CCC[C@@H]3C(=O)NCc3ccccc3)nc2c1=O` [Example 294, (R)-N-benzyl-1-{6-[3-(N′,N′-dimethylamino)propyl]-7-oxo-5-trifluoromethyl-6,7-dihydro-[1,3]thiazolo[5,4-d]pyrimidin-2-yl}pyrrolidine-2-carboxamide], the IC50 stood at 170 nM.

As to `Cn1c(-c2ncccc2F)nc2sc(N3CCC[C@@H]3C(=O)NCc3ccccc3)nc2c1=O` [Example 298, (R)-N-benzyl-1-[5-(3-fluoropyridin-2-yl)-6-methyl-7-oxo-6,7-dihydro-[1,3]thiazolo[5,4-d]pyrimidin-2-yl]pyrrolidine-2-carboxamide], the IC50 is 26 nM.

With `CCn1c(C(F)F)nc2sc(N3CCC[C@@H]3C(=O)N[C@@H](c3ccccc3)C3CC3)nc2c1=O` [Example 299, (R)-N-[(R)-cyclopropyl(phenyl)methyl]-1-(5-difluoromethyl-6-ethyl-7-oxo-6,7-dihydro-[1,3]thiazolo[5,4-d]pyrimidin-2-yl)pyrrolidine-2-carboxamide], the IC50 is 460 nM.

As to `CCn1c(C(F)F)nc2sc(N3CCC[C@@H]3C(=O)N[C@H](COC)c3ccccc3)nc2c1=O` [Example 300, (R)-1-(5-difluoromethyl-6-ethyl-7-oxo-6,7-dihydro-[1,3]thiazolo[5,4-d]pyrimidin-2-yl)-N-((S)-2-methoxy-1-phenylethyl)pyrrolidine-2-carboxamide], the IC50 was 180 nM.

Take `CCn1c(C(F)F)nc2sc(N3CCC[C@@H]3C(=O)N[C@@H](c3ccccc3)C(F)(F)F)nc2c1=O` [Example 301, (R)-1-(5-difluoromethyl-6-ethyl-7-oxo-6,7-dihydro-[1,3]thiazolo[5,4-d]pyrimidin-2-yl)pyrrolidine-N-((S)-2,2,2-trifluoro-1-phenylethyl)-2-carboxamide]: the IC50 amounted to 2600 nM.

For the molecule `CCn1c(C(F)F)nc2sc(N3CCC[C@@H]3C(=O)NCc3ccc4c(c3)OCO4)nc2c1=O` [Example 304, (R)-N-[(benzo[1,3]dioxo-5-yl)methyl]-1-(5-difluoromethyl-6-ethyl-7-oxo-6,7-dihydro-[1,3]thiazolo[5,4-d]pyrimidin-2-yl)pyrrolidine-2-carboxamide], the IC50 was 21 nM.

As for `CCn1c(C(F)F)nc2sc(N3CCC[C@@H]3C(=O)NCc3ccco3)nc2c1=O` [Example 307, (R)-1-(5-difluoromethyl-6-ethyl-7-oxo-6,7-dihydro-[1,3]thiazolo[5,4-d]pyrimidin-2-yl)-N-[(furan-2-yl)methyl]pyrrolidine-2-carboxamide], the IC50 is 120 nM.

Consider `CCn1c(C(F)F)nc2sc(N3CCC[C@@H]3C(=O)NCc3cccs3)nc2c1=O` [Example 309, (R)-1-(5-difluoromethyl-6-ethyl-7-oxo-6,7-dihydro-[1,3]thiazolo[5,4-d]pyrimidin-2-yl)-N-[(thiophen-2-yl)methyl]pyrrolidine-2-carboxamide], for which the IC50 amounted to 61 nM.

For the molecule `CCn1c(C(F)F)nc2sc(N3CCC[C@@H]3C(=O)NCc3cc(C)on3)nc2c1=O` [Example 311, (R)-1-(5-difluoromethyl-6-ethyl-7-oxo-6,7-dihydro-[1,3]thiazolo[5,4-d]pyrimidin-2-yl)-N-[(5-methyl-isoxazol-3-yl)methyl]pyrrolidine-2-carboxamide], the IC50 was 340 nM.

Regarding `CCn1c(C(F)F)nc2sc(N3CCC[C@@H]3C(=O)NCc3cc(C)nn3C)nc2c1=O` [Example 313, (R)-1-(5-difluoromethyl-6-ethyl-7-oxo-6,7-dihydro-[1,3]thiazolo[5,4-d]pyrimidin-2-yl)-N-[(2,5-dimethyl-2H-pyrazol-3-yl)methyl]pyrrolidine-2-carboxamide], the IC50 turned out to be 1100 nM.

Regarding `CCn1c(C(F)F)nc2sc(N3CCC[C@@H]3C(=O)NCc3nccs3)nc2c1=O` [Example 314, (R)-1-(5-difluoromethyl-6-ethyl-7-oxo-6,7-dihydro-[1,3]thiazolo[5,4-d]pyrimidin-2-yl)-N-[(1,3-thiazol-2-yl)methyl]pyrrolidine-2-carboxamide], the half-maximal inhibitory concentration (IC50) is 610 nM.

For `COC1CN(Cc2nc3sc(N4CCC[C@@H]4C(=O)NCc4ccccc4)nc3c(=O)n2C)C1` [Example 321, (R)-N-benzyl-1-{5-[(3-methoxyazetidin-1-yl)methyl]-6-methyl-7-oxo-6,7-dihydro[1,3]thiazolo[5,4-d]pyrimidin-2-yl}pyrrolidine-2-carboxamide], the IC50 came to 70 nM.

`Cn1c(CN2CCOCC2)nc2sc(N3CCC[C@@H]3C(=O)NCc3ccccc3)nc2c1=O` [Example 322, (R)-N-benzyl-1-{6-methyl-5-[(morpholin-4-yl)methyl]-7-oxo-6,7-dihydro[1,3]thiazolo[5,4-d]pyrimidin-2-yl}pyrrolidine-2-carboxamide]: the IC50 was 20 nM.

Consider `CN(C)Cc1nc2sc(N3CCC[C@@H]3C(=O)NCc3ccccc3)nc2c(=O)n1C` [Example 323, (R)-N-benzyl-1-{5-[(N′,N′-dimethylamino)methyl]-6-methyl-7-oxo-6,7-dihydro[1,3]thiazolo[5,4-d]pyrimidin-2-yl}pyrrolidine-2-carboxamide], for which the IC50 was found to be 78 nM.

In the case of `Cn1c(CN2Cc3ccccc3C2)nc2sc(N3CCC[C@@H]3C(=O)NCc3ccccc3)nc2c1=O` [Example 328, (R)-N-benzyl-1-{5-[(1,3-dihydro-2H-isoindol-2-yl)methyl]-6-methyl-7-oxo-6,7-dihydro[1,3]thiazolo[5,4-d]pyrimidin-2-yl}pyrrolidine-2-carboxamide], the IC50 is 17 nM.

For `CN(Cc1nc2sc(N3CCC[C@@H]3C(=O)NCc3ccccc3)nc2c(=O)n1C)CC(F)(F)F` [Example 333, (R)-N-benzyl-1-[6-methyl-5-{[N′-methyl-N′-(2,2,2-trifluoroethyl)amino]methyl}-7-oxo-6,7-dihydro[1,3]thiazolo[5,4-d]pyrimidin-2-yl]pyrrolidine-2-carboxamide], the IC50 was 49 nM.

Regarding `CN(C)c1nc2sc(N3CCC[C@@H]3C(=O)NCc3ccccc3)nc2c(=O)n1C` [Example 335, (R)-N-benzyl-1-[5-(N′,N′-dimethylamino)-6-methyl-7-oxo-6,7-dihydro[1,3]thiazolo[5,4-d]pyrimidin-2-yl]pyrrolidine-2-carboxamide], the IC50 is 5.6 nM.

Take `Cn1c(N2CCCCC2)nc2sc(N3CCC[C@@H]3C(=O)NCc3ccccc3)nc2c1=O` [Example 337, (R)-N-benzyl-1-[6-methyl-7-oxo-5-(piperidin-1-yl)-6,7-dihydro[1,3]thiazolo[5,4-d]pyrimidin-2-yl]pyrrolidine-2-carboxamide]: the 50% inhibitory concentration (IC50) came to 4.4 nM.

Take `Cn1c(N2CCOCC2)nc2sc(N3CCC[C@@H]3C(=O)NCc3ccccc3)nc2c1=O` [Example 339, (R)-N-benzyl-1-[6-methyl-5-(morpholin-4-yl)-7-oxo-6,7-dihydro[1,3]thiazolo[5,4-d]pyrimidin-2-yl]pyrrolidine-2-carboxamide]: the IC50 was determined as 7.9 nM.

For `CC(C)Nc1nc2sc(N3CCC[C@@H]3C(=O)NCc3ccccc3)nc2c(=O)n1C` [Example 341, (R)-N-benzyl-1-{6-methyl-7-oxo-5-[(propan-2-yl)amino]-6,7-dihydro[1,3]thiazolo[5,4-d]pyrimidin-2-yl}pyrrolidine-2-carboxamide], the IC50 came to 11 nM.

Turning to `Cn1c(-c2ccccc2F)nc2sc(N3CCC[C@@H]3C(=O)NCc3ccccc3)nc2c1=O` [Example 345, (R)-N-benzyl-1-[5-(2-fluorophenyl)-6-methyl-7-oxo-6,7-dihydro[1,3]thiazolo[5,4-d]pyrimidin-2-yl]pyrrolidine-2-carboxamide], the IC50 turned out to be 8.7 nM.

For the molecule `CNCCn1c(C(F)(F)F)nc2sc(N3CCC[C@@H]3C(=O)NCc3ccccc3)nc2c1=O` [Example 363, (R)-N-benzyl-1-[6-(2-methylaminoethyl)-7-oxo-5-trifluoromethyl-6,7-dihydro[1,3]thiazolo[5,4-d]pyrimidin-2-yl]pyrrolidine-2-carboxamide], the IC50 turned out to be 120 nM.

In the case of `CN1CCC(Cn2c(C(F)(F)F)nc3sc(N4CCC[C@@H]4C(=O)NCc4ccccc4)nc3c2=O)CC1` [Example 366, (R)-N-benzyl-1-{6-[(1-methylpiperidin-4-yl)methyl]-7-oxo-5-trifluoromethyl-6,7-dihydro[1,3]thiazolo[5,4-d]pyrimidin-2-yl}pyrrolidine-2-carboxamide], the IC50 turned out to be 150 nM.
